Here are results for three compounds from US11352396B2, “Antimicrobial peptides and methods of using same” (Zoetis Services LLC, priority 2017, dated 2022).

Residues, ends and D or L forms follow the SMILES beside them.

The subject of one series is human red blood cells. The series can be described thus: Red blood cell hemolysis assay, human. Format: cell-based. The conditions noted are these: compared with SEQ ID NO: 13 (tachyplesin), FIG. 1. On the procedure:
(§1) SEQ ID NO: 1 was selected for further research. Toxicity of SEQ ID NO: 1 to eukaryotic blood cells was compared to that of tachyplesin (SEQ ID NO: 13). A standard, well referenced red blood cell hemolysis assay was employed against multiple species to test the lysis potential of the peptides. Red blood cells (RBCs) were prepared and isolated by several centrifuge and wash steps to remove the plasma fraction. A dose titration (50 μM to 0.05 μM) of test peptides and control peptide melittin were spotted from 50 mM stocks in a 384 well plate. Prepared RBCs were incubated with peptide for one hour at 37° C. Percent hemolysis was measured by optical density at 405 nm and utilizing 1% TritonX100 as hundred percent effect (HPE) and phosphate buffer alone as zero percent effect (ZPE).

In another series the test system is beagle red blood cells. The series can be described thus: Red blood cell hemolysis assay, beagle. The format is cell-based. As to conditions: compared with SEQ ID NO: 13 (tachyplesin), FIG. 1. On the procedure: as §1
In a further series the test system is rat red blood cells. Description: Red blood cell hemolysis assay, rat. Format: cell-based. As to conditions: compared with SEQ ID NO: 13 (tachyplesin), FIG. 1. The method, then:
as §1

For a further series, the system named is mouse red blood cells. Description: Red blood cell hemolysis assay, mouse. The conditions noted are these: compared with SEQ ID NO: 13 (tachyplesin). Format: cell-based. The method, then: as §1
In another series the test system is bovine red blood cells. Description: Red blood cell hemolysis assay, bovine. The format is cell-based. The conditions noted are these: compared with SEQ ID NO: 13 (tachyplesin). The method, then:
as §1

In a further series the test system is S. aureus ATCC 29213. Format: cell-based. The conditions noted are these: S. aureus 29213, Table 6. Further details: key to SA 29213: MIC in μM (lowest conc. with no visible growth). Summed up: (§2)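 Broth microdilution followed CLSI VET01-S2, with peptides serially diluted to in-assay concentrations of 50 μM to 0.05 μM. A 0.5 McFarland inoculum diluted 1:250 in Mueller-Hinton Broth was incubated with peptide for 18-20 hours. MIC was read visually as the first well without visible growth.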

The test system of another series is E. coli ATCC 25922. Format: cell-based. As to conditions: E. coli 25922, Table 6. Summed up: as §2
In series [1] the test system is MSSP (Methicillin-Susceptible Staphylococcus pseudintermedius). Description: MIC against selected strains of MSSP. The format is cell-based. On the set-up: MIC MSSP 49051 / MIC MSSP 81923 / MIC MSSP 84250 / Effect on MSSP 86000 / Effect on MSSP 72036 / Effect on MSSP 78032: unit not given beside the values; Effect on MSSP 71990 / Effect on MSSP 86001 / Effect on MSSP 72191 / Effect on MSSP 76986 / Effect on MSSP 77378 / Effect on MSSP 81923 / Effect on MSSP 84250 / Effect on MSSP 84658: unit: µM. The conditions noted are these: for SP 49051: S. pseudintermedius 49051, Table 6; for Effect on MSSP 71990: strain 71990, Table 5; for Effect on MSSP 72036: strain 72036, Table 5; for Effect on MSSP 72191: strain 72191, Table 5; for Effect on MSSP 76986: strain 76986, Table 5; for Effect on MSSP 77378: strain 77378, Table 5; for Effect on MSSP 78032: strain 78032, Table 5; for Effect on MSSP 81923: strain 81923, Table 5; for Effect on MSSP 84250: strain 84250, Table 5; for Effect on MSSP 84658: strain 84658, Table 5; for Effect on MSSP 86000: strain 86000, Table 5; for Effect on MSSP 86001: strain 86001, Table 5. Summed up: (§3)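 Broth microdilution MIC following CLSI VET01-S2: peptides titrated 50 μM to 0.05 μM in assay, inoculum a 0.5 McFarland suspension diluted 1:250 in Mueller-Hinton broth. Incubated overnight (18–20 h); MIC taken visually as lowest concentration without visible growth.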

In series [2] the test system is MRSP (Methicillin-Resistant Staphylococcus pseudintermedius). The series can be described thus: MIC against selected strains of MRSP. The format is cell-based. Further details: key to MIC MRSP 72192 / MIC MRSP 76923 / MR 71994 / Mr 88493 / MR 72035 / MR 72192 / MR 76923 / MR 79882 / MR 80279 / MR 81926 / MR 86002 / MR 87665: MIC in μM (visual, first well with no growth). The conditions noted are these: for MR 71994: MRSP strain 71994, Table 6; for MR 72035: MRSP strain 72035, Table 6; for MR 72192: MRSP strain 72192, Table 6; for MR 76923: MRSP strain 76923, Table 6; for MR 79882: MRSP strain 79882, Table 6; for MR 80279: MRSP strain 80279, Table 6; for MR 81926: MRSP strain 81926, Table 6; for MR 86002: MRSP strain 86002, Table 6; for MR 87665: MRSP strain 87665, Table 6; for Mr 88493: MRSP strain 88493, Table 6. The method, boiled down: as §3

Series [3] relates to Canine-derived epithelial keratinocyte (CPEK) cells. The format is cell-based. The method, boiled down:
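CPEK cells were dosed with peptides at 50 μM to 0.05 μM and incubated overnight at 37 °C, 5% CO2. Viability was read by CellTiter-Glo luminescence. Percent effect was normalised to 0.1% Triton X-100 (high) and phosphate buffer alone (zero).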

For the next series, the system named is cRBC. Format: cell-based, canine. Summed up: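 Washed, plasma-free red cells were incubated with peptide titrated from 50 µM to 0.05 µM for 1 h at 37 °C. Hemolysis was read as OD at 405 nm, scaled between phosphate buffer alone (0%) and 1% Triton X-100 (100%).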

As to `CC[C@H](C)[C@H](NC(=O)CNC(=O)[C@H](CCCNC(=N)N)NC(=O)[C@H](Cc1ccc(O)cc1)NC(=O)[C@H](CS)NC(=O)[C@@H](NC(=O)[C@H](CCCNC(=N)N)NC(=O)[C@H](Cc1ccccc1)NC(=O)[C@H](CS)NC(=O)[C@H](Cc1c[nH]c2ccccc12)NC(=O)[C@@H](N)CCCCN)C(C)C)C(=O)N[C@@H](CS)C(=O)N[C@@H](Cc1ccc(O)cc1)C(=O)N[C@@H](CCCNC(=N)N)C(=O)N[C@@H](CCCNC(=N)N)C(=O)N[C@@H](CS)C(=O)N[C@@H](CCCNC(=N)N)C(=O)N[C@@H](CC(=O)O)C(=O)O` [SEQ ID NO: 1, KWCFRVCYRGICYRRCRD] (H-KWCFRVCYRGICYRRCRD-OH; N-terminus and C-terminus assumed), the “times less toxic than SEQ ID NO: 13, human red blood cells” value with human red blood cells is listed as 2-4 times. The “times less toxic than SEQ ID NO: 13, beagle red blood cells” value in the series with beagle red blood cells is listed as 2-4 times. In addition, in the series on rat red blood cells, the “times less toxic than SEQ ID NO: 13, rat red blood cells” value was 2-4 times. Further, the “difference in toxicity versus SEQ ID NO: 13, mouse red blood cells” value in the series on mouse red blood cells is “negligible”. Also, the “difference in toxicity versus SEQ ID NO: 13, bovine red blood cells” value with bovine red blood cells is listed as “negligible”.
As for “98 (KWCVRVCYRGICYRRCRD; Artificial Antimicrobial peptide) [compound 98]”, the “SA 29213” value with S. aureus ATCC 29213 is 3.1. In addition, in the series on E. coli ATCC 25922, the EC 25922 turned out to be 1.6 µM. For the same compound, in series [1], the “SP 49051” value was found to be 1.6, the “Effect on MSSP 71990” value amounted to 1.6, the “Effect on MSSP 72036” value was found to be 1.6 and the “Effect on MSSP 72191” value is 1.6. Also, in series [1], the “Effect on MSSP 76986” value amounted to 1.6, the “Effect on MSSP 77378” value stood at 1.6, the “Effect on MSSP 78032” value came out at 1.6 and the “Effect on MSSP 81923” value amounted to 1.6. For the same compound, in series [1], the “Effect on MSSP 84250” value was 1.6, the “Effect on MSSP 84658” value was 1.6, the “Effect on MSSP 86000” value stood at 1.6 and the “Effect on MSSP 86001” value came to 1.6. Further, in series [2], the “MR 71994” value is listed as 1.6, the “MR 72035” value is given as 3.1, the “MR 72192” value turned out to be 1.6 and the “MR 76923” value amounted to 1.6. Besides, in series [2], the “MR 79882” value is given as 0.8, the “MR 80279” value amounted to 1.6, the “MR 81926” value is on record as 1.6 and the “MR 86002” value was determined as 1.6. Further, in [2], the “MR 87665” value was 1.6 and the “Mr 88493” value came to 1.6. Also, the “CPEK (50 μM)” value in series [3] is given as 9.3. Besides, the “cRBC (50 μM)” value in the series with cRBC is 35.0.
Consider “108 (KWCFRVCYGGICYRRCRD; Artificial Antimicrobial peptide) [compound 108]”, for which the “SA 29213” value in the series on S. aureus ATCC 29213 is listed as 12.5. The EC 25922 with E. coli ATCC 25922 was determined as 0.8 µM. Moreover, in [1], the “SP 49051” value stood at 3.1, the “Effect on MSSP 71990” value worked out at 3.1, the “Effect on MSSP 72036” value is reported as 3.1 and the “Effect on MSSP 72191” value worked out at 3.1. In [1], the “Effect on MSSP 76986” value was 3.1, the “Effect on MSSP 77378” value was determined as 3.1, the “Effect on MSSP 78032” value came to 3.1 and the “Effect on MSSP 81923” value is 3.1. Further, in series [1], the “Effect on MSSP 84250” value stood at 3.1, the “Effect on MSSP 84658” value was 3.1, the “Effect on MSSP 86000” value came out at 3.1 and the “Effect on MSSP 86001” value was 3.1. In addition, in series [2], the “MR 71994” value came out at 3.1, the “MR 72035” value is on record as 3.1, the “MR 72192” value was 3.1 and the “MR 76923” value is reported as 3.1. Besides, in series [2], the “MR 79882” value was 3.1, the “MR 80279” value is on record as 3.1, the “MR 81926” value is given as 3.1 and the “MR 86002” value is reported as 3.1. Further, in [2], the “MR 87665” value came out at 3.1 and the “Mr 88493” value is on record as 3.1. In series [3], the “CPEK (50 μM)” value is given as 9.6. For the same compound, the “cRBC (50 μM)” value in the series on cRBC is 27.7.
